70 compounds from PubChem BioAssay AID1553 (Sanford-Burnham Center for Chemical Genomics, 2009) can be followed below.

Values joined by “and” are separate entries in the source; they are usually repeats but may differ in a detail not shown here. Equal entries are not always repeated. Active and inactive are the calls of the source.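 How the source made its calls: active means compounds graded as giving a low, moderate or strong rise in tritium labelling of cell protein versus solvent control; inactive means the rest.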

This test relates to HeLa cells, 3H-mannose incorporation into glycoproteins. Put plainly: 3H-mannose glycoprotein labeling increase in HeLa – HeLa cells, orthogonal assay for PMI inhibitor project, late-stage follow-up (AID 1553).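 Further: 1 fold = DMSO treated HeLa control cells; higher fold signals phosphomannose isomerase inhibition routing mannose into glycosylation.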
Setting [1] is: fold increase, at 25 µM, stronger effect = higher value.

With `Clc1cccc(N=c2ssnc2Cl)c1`, the fold increase 3H incorporation was 0.4 (at 100 µM) and 1.7 under setting [1]. On to `S=c1nc(-c2cccc(Br)c2)[nH][nH]1`, for which the fold increase 3H incorporation (at 100 µM) was 0.9 (inactive).

On to `Clc1ccc(N=c2ssnc2Cl)cc1Cl`, for which the fold increase 3H incorporation (at 100 µM) is 0.1 (inactive) and the fold increase 3H incorporation under setting [1] came out at 0.1.

Regarding `COc1cc(N=c2ssnc2Cl)c(OC)cc1Cl`, the fold increase 3H incorporation runs as follows: (at 100 µM) 1.9; under setting [1], 1.2. `COc1cccc(-n2sc3ccccc3c2=O)c1`: the fold increase 3H incorporation runs as follows: (at 100 µM) 1.4; under setting [1], 0.8. The corresponding values for `O=c1c2ccccc2sn1-c1cc(S(=O)(=O)N2CCOCC2)ccc1N1CCOCC1` are 0.4 (inactive) and 0.8.

For the compound `O=c1c2ccc(F)cc2sn1-c1cc(Cl)ccc1Cl`, the fold increase 3H incorporation is, setting by setting: (at 100 µM) 0.8 (inactive); under setting [1], 1. As for `Cc1ccc(C)c(-n2sc3cc(F)ccc3c2=O)c1`, the fold increase 3H incorporation was 0.6 (at 100 µM) and 1.4 under setting [1]. Consider `O=C(O)c1cccc(-n2sc3ccccc3c2=O)c1`, for which the fold increase 3H incorporation by setting is: (at 100 µM) 0.5 (inactive); under setting [1], 0.5. Take `COc1ccc(-c2nc(=S)[nH][nH]2)cc1OC`: the fold increase 3H incorporation (at 100 µM) is 0.8 (inactive).

For the compound `O=c1c2ccccc2sn1-c1ccc(Cl)cc1`, the fold increase 3H incorporation was 0.6 (at 100 µM) and 3.4 under setting [1]. On to `COc1ccc(-c2nc(=S)[nH][nH]2)cc1`, for which the fold increase 3H incorporation (at 100 µM) is 0.8 (inactive) and the fold increase 3H incorporation under setting [1] is 1. As for `O=[N+]([O-])c1ccc(N=c2ssnc2Cl)c([N+](=O)[O-])c1`, the fold increase 3H incorporation (at 100 µM) was 1.5. As for `Cc1ccc(C)c(-n2sc3ccc(F)cc3c2=O)c1`, the fold increase 3H incorporation by setting is: (at 100 µM) 1; under setting [1], 2.9.

`O=c1c2ccccc2sn1-c1cccc(I)c1`: the fold increase 3H incorporation reads like this: (at 100 µM) 0.7; under setting [1], 3.4. Turning to `Cc1ccc(C)c(-n2sc3ccccc3c2=O)c1`, the fold increase 3H incorporation is 1.5 (at 100 µM) and 1.4 under setting [1]. On to `S=c1nc(-c2cccc(Cl)c2)[nH][nH]1`, for which, under “at 100 µM”, the fold increase 3H incorporation was 1 (inactive).

Turning to `Cc1ccnc(-n2sc3ccccc3c2=O)n1`, the fold increase 3H incorporation was 1 (inactive) (at 100 µM) and 0.9 under setting [1]. For `Cc1cccc(N=c2ssnc2Cl)c1`, the fold increase 3H incorporation (at 100 µM) was 0.7 and the fold increase 3H incorporation under setting [1] was 1.6. `Cc1ccc(N=c2ssnc2Cl)cc1`: the fold increase 3H incorporation is 1.6 (at 100 µM) and 1.1 under setting [1]. With `Oc1ccc(N=c2ssnc2Cl)cc1`, the fold increase 3H incorporation reads like this: (at 100 µM) 0.7 (inactive); under setting [1], 0.8. With `CN(C)c1cccc(-n2sc3ccccc3c2=O)c1`, the fold increase 3H incorporation (at 100 µM) was 1.1 (inactive) and the fold increase 3H incorporation under setting [1] is 1.3. Regarding `CN(C)S(=O)(=O)c1cccc(-n2sc3ccccc3c2=O)c1`, the fold increase 3H incorporation (at 100 µM) was 1.1 and the fold increase 3H incorporation under setting [1] worked out at 1.1.

For `Cc1ccc(N=c2ssnc2Cl)c([N+](=O)[O-])c1`, the fold increase 3H incorporation (at 100 µM) was 3.2 and the fold increase 3H incorporation under setting [1] worked out at 1.5. For `COc1ccc2c(=O)n(C3CCCC3)sc2c1`, the fold increase 3H incorporation was 0 (inactive) (at 100 µM) and 0.9 under setting [1]. On to `O=c1c2c([N+](=O)[O-])cc([N+](=O)[O-])cc2sn1-c1ccccc1F`, for which the fold increase 3H incorporation runs as follows: (at 100 µM) 0.9 (inactive); under setting [1], 0.9.

Consider `CCSc1n[nH]c(=S)s1`, for which the fold increase 3H incorporation (at 100 µM) is 1 (inactive) and the fold increase 3H incorporation under setting [1] worked out at 1.

Turning to `Cc1ccc(-n2sc3ccccc3c2=O)cc1S(=O)(=O)N1CCCCC1`, the fold increase 3H incorporation reads like this: (at 100 µM) 1.4; under setting [1], 1.2. Turning to `COc1cc(-c2nc(=S)[nH][nH]2)cc(OC)c1OC`, the fold increase 3H incorporation (at 100 µM) was 0.8 (inactive). On to `Cc1cccc(-n2sc3cc(F)ccc3c2=O)c1C`, for which the fold increase 3H incorporation is, setting by setting: (at 100 µM) 0.5; under setting [1], 2.1. For `COc1ccc(N=c2ssnc2Cl)cc1OC`, the fold increase 3H incorporation (at 100 µM) was 0.1 (inactive) and the fold increase 3H incorporation under setting [1] is 0.3. For the compound `COc1cc([N+](=O)[O-])ccc1N=c1ssnc1Cl`, the fold increase 3H incorporation is, setting by setting: (at 100 µM) 1.4; under setting [1], 1.3. In the case of `Cc1ccc(C)n1-c1nc(=S)[nH][nH]1`, the fold increase 3H incorporation (at 100 µM) is 1 (inactive). For `COc1cc(N=c2ssnc2Cl)cc(OC)c1`, the fold increase 3H incorporation is 1.9 (at 100 µM) and 1.1 under setting [1]. As to `Cc1ccc(-n2sc3ccccc3c2=O)cc1`, the fold increase 3H incorporation by setting is: (at 100 µM) 1 (inactive) and 0.6 (inactive); under setting [1], 1.1 and 1.2. `O=c1c2ccccc2sn1-c1ccc(Cl)c(S(=O)(=O)N2CCOCC2)c1`: the fold increase 3H incorporation was 1.2 (inactive) (at 100 µM) and 1 under setting [1].

On to `O=c1c2cc(F)ccc2sn1-c1ccccc1`, for which the fold increase 3H incorporation by setting is: (at 100 µM) 1.6; under setting [1], 2.3. The corresponding values for `O=c1c2ccccc2sn1-c1cccc(C(F)(F)F)c1` are 0.7 and 1.2. As to `COC(=O)c1cccc(-n2sc3ccccc3c2=O)c1`, the fold increase 3H incorporation reads like this: (at 100 µM) 1.7; under setting [1], 1.5. The corresponding values for `Clc1nss/c1=N\c1nc2ccccc2s1` are 0.1 (inactive) and 0.7. `O=c1c2c([N+](=O)[O-])cc([N+](=O)[O-])cc2sn1-c1ccc(F)c(Cl)c1`: the fold increase 3H incorporation (at 100 µM) was 0.7 (inactive) and the fold increase 3H incorporation under setting [1] is 0.9. For the compound `O=C1c2ccccc2SC1c1ccccc1` (stereo not given), the fold increase 3H incorporation by setting is: (at 100 µM) 1.7; under setting [1], 2.1. `Clc1nssc1=Nc1ccccc1`: the fold increase 3H incorporation is, setting by setting: (at 100 µM) 1.9; under setting [1], 1.2. Taken in the same sequence, the figures for `CN(C)c1cccc(N=c2ssnc2Cl)c1` were 0.2 (inactive) and 0.3. Take `O=C(NCc1ccccc1)c1cccc(-n2sc3ccccc3c2=O)c1`: the fold increase 3H incorporation is 1.2 (inactive) (at 100 µM) and 1.2 under setting [1]. With `Cc1ccc(C)c(N2Cc3ccccc3C2=O)c1`, the fold increase 3H incorporation (at 100 µM) is 1.2 (inactive) and the fold increase 3H incorporation under setting [1] was determined as 1.1.

Turning to `O=C(O)CCn1cc(C=C2C(=O)NC(=S)NC2=O)c(-c2cccc(Br)c2)n1`, under “at 100 µM”, the fold increase 3H incorporation was 0.8 (inactive). `Clc1nss/c1=N\c1nccs1`: the fold increase 3H incorporation is, setting by setting: (at 100 µM) 1 (inactive); under setting [1], 1.1.

As to `O=C(O)c1ccccc1NS(=O)(=O)c1cccc(-n2sc3ccccc3c2=O)c1`, the fold increase 3H incorporation runs as follows: (at 100 µM) 0 (inactive); under setting [1], 0.2.

On to `Nc1ccccc1N=c1ssnc1Cl`, for which the fold increase 3H incorporation reads like this: (at 100 µM) 0.9 (inactive); under setting [1], 0.9. With `O=c1c2ccccc2sn1-c1nccs1`, the fold increase 3H incorporation by setting is: (at 100 µM) 1 (inactive); under setting [1], 0.9. Regarding `O=c1c2ccccc2sn1-c1ccc(F)cc1`, the fold increase 3H incorporation is 2.5 (at 100 µM) and 2.5 under setting [1]. As for `O=c1c2ccc(O)cc2sn1C1CCCC1`, the fold increase 3H incorporation reads like this: (at 100 µM) 0.8 (inactive); under setting [1], 1.1. For `O=c1c2ccccc2sn1-c1cc(S(=O)(=O)N2CCOCC2)ccc1N1CCCC1`, the fold increase 3H incorporation runs as follows: (at 100 µM) 0.7 (inactive); under setting [1], 0.7. Turning to `O=[N+]([O-])c1ccc(N=c2ssnc2Cl)c2ccccc12`, the fold increase 3H incorporation is, setting by setting: (at 100 µM) 0.4; under setting [1], 0.5.

For `Cc1ccc(C=Nn2c(-c3ccncc3)n[nH]c2=S)cc1`, the fold increase 3H incorporation (at 100 µM) was 1 (inactive). As to `O=c1c2ccccc2sn1-c1cccc(Cl)c1`, the fold increase 3H incorporation reads like this: (at 100 µM) 0.6; under setting [1], 3.4.

Regarding `Cc1c(Cl)cccc1-n1sc2cc([N+](=O)[O-])cc(OCC(F)(F)F)c2c1=O`, the fold increase 3H incorporation (at 100 µM) was 1.1 (inactive) and the fold increase 3H incorporation under setting [1] was found to be 1.4. With `CCc1cc(CC)c(N=c2ssnc2Cl)c(CC)c1`, the fold increase 3H incorporation by setting is: (at 100 µM) 0.2; under setting [1], 0.3. With `N#CC1=C2SCN(Cc3ccccc3)CN2C(=O)CC1c1ccc2c(c1)OCO2` (stereo not given), the fold increase 3H incorporation (at 100 µM) was 1 (inactive). As for `Clc1nss/c1=N\c1nncs1`, the fold increase 3H incorporation was 0.5 (inactive) (at 100 µM) and 0.9 under setting [1].

Regarding `Clc1nssc1=Nc1ccc(Br)cc1`, the fold increase 3H incorporation reads like this: (at 100 µM) 0.5; under setting [1], 3.6.

Take `Cc1cccc(-n2sc3ccccc3c2=O)c1`: the fold increase 3H incorporation by setting is: (at 100 µM) 2.3; under setting [1], 2. With `FC(F)(F)c1ccc(N=c2ssnc2Cl)cc1`, the fold increase 3H incorporation by setting is: (at 100 µM) 0.3; under setting [1], 1.4. With `Clc1ccc(N=c2ssnc2Cl)cc1`, the fold increase 3H incorporation is 0.2 (inactive) (at 100 µM) and 1.1 under setting [1]. For `OCc1ccccc1N=c1ssnc1Cl`, the fold increase 3H incorporation (at 100 µM) was 0.9 (inactive) and the fold increase 3H incorporation under setting [1] came out at 0.9. In the case of `O=c1c2ccccc2sn1-c1cccc(S(=O)(=O)Nc2ccc(Cl)cc2)c1`, the fold increase 3H incorporation reads like this: (at 100 µM) 0.7 (inactive); under setting [1], 0.4. As for `COc1cc(N=c2ssnc2Cl)cc(OC)c1OC`, the fold increase 3H incorporation is 1.2 (inactive) (at 100 µM) and 1.1 under setting [1]. On to `O=c1c2ccccc2sn1-c1ccc2ccccc2c1`, for which the fold increase 3H incorporation by setting is: (at 100 µM) 1.9; under setting [1], 1.6.

`Cc1[nH]n(-c2ccccc2)c(=S)c1C=Nc1cccc([N+](=O)[O-])c1`: where the note is “at 100 µM”, the fold increase 3H incorporation is 0.7 (inactive).
